In one assay the test system is MCF-7 cells. Kind of assay: Annexin-V/PI apoptosis assay by flow cytometry, MCF-7. The class given is cell-based, human. The following applies: IC50 concentration, 48 h. Here is the method:
Annexin-V staining was used to assess the apoptotic potential of the selected hydrazones as described.[22,41] Briefly, cells were treated with IC50 concentration of selected hydrazones for 24 h and control cells were treated with DMSO/culture medium only. After 24 h incubation, approximately 2.0–2.5 × 10^6 cells were collected by trypsinization and washed twice with PBS (5–10 mL). Finally, FITC labelled Annexin-V and PE labelled PI was used for staining the cells using the FITC-Annexin-V kit by following manufacture instructions (BD-Biosciences, USA). Nearly, 10 000 events were recorded using BD LSR II Flow Cytometry Analyzer and analyzed by FlowJo software.
Cancer cells support their growth and maintenance by evading the apoptotic pathways.[48] MARK4 regulates the cancer cell growth and proliferation via modulating the apoptotic pathways.[12,15,46] The treatment of MCF-7 and A549 cells with H4 and H19 inhibit the activity of MARK4, decreases cell proliferation and migration raises the evaluation of these MARK4 inhibitors for the apoptosis induction. Thus, to investigate whether the selected inhibitor induces cell death via apoptosis or not, we have performed Annexin-V/PI staining using flow cytometry. Cells were treated with IC50 concentration of each molecule for 48 h and processed for apoptosis analysis. […]
For orientation: A flow cytometer gives signals particle by particle.

Assay [1] has as its system A549 cells. The experiment in a line: Colony formation assay, A549. The class given is cell-based, human. The conditions noted are these: IC50 concentration, 10–12 days, vs control. The method, then:
The colony-forming assay was performed to evaluate the effect of selected compounds on cell colonization potential of cancer cells. Briefly, cells were plated at a density of 1000–2000 (A549/MCf-7) cells per well in a six-well cell culture plate. Cells were grown for at least 24 h in cell growth medium and then incubated with IC50 concentration of selected compounds for 10–12 days at 37 °C (in a humidified 5% CO2 incubator). Control cells were treated with an equal percentage of DMSO. After 10–12 days, the cell colonies were fixed with 100% methanol and staining was performed using 0.4% crystal violet in 25% methanol. The colonies obtained was counted, plotted and compared with the controls.

Assay [2] concerns the target human serum albumin (HSA) (Homo sapiens, UniProt P02768). Kind of assay: Fluorescence quenching binding study with HSA. The conditions noted are these: Stern–Volmer plot, ligand 0–20 μM, HSA 5–10 μM. The method, then: The binding affinity of selected hydrazone derivatives with human serum albumin (HSA) and MARK4 was carried out using fluorescence binding studies as described.[39] The values of binding constant (Ka) and a number of binding sites present in protein (n) were obtained by using the modified Stern–Volmer equation from the intercept and slope, respectively.
To measure the actual binding affinity of selected ligands with MARK4 and HSA, fluorescence quenching studies were performed.[43,44] Both MARK4 and HSA contain tryptophan residues, therefore it has been used as an intrinsic fluorophore to estimate the interaction of ligand. Protein was excited at 280 nm and the emission spectrum was recorded in 300–400 nm range. With increasing ligand concentrations (0–20 μM), the fluorescence intensity of MARK4 and HSA was decreases in a concentration-dependent manner (Fig. 3 and 4), indicating a considerable binding. Values of Ka and n were calculated from fluorescence emission spectra using the Stern–Volmer plot. […]
Fig. 4 Binding of compound H4 and H19 with HSA. (A) Fluorescence emission spectra of HSA (5–10 μM) with increasing concentrations of compound H4 and H19. (B) Stern–Volmer plot obtained from the fluorescence quenching data of HSA by compound H4 and H19, respectively. Protein sample was excited at 280 nm and emission for each titration was recorded in the range of 300–400 nm. […]

Assay [3] deals with A549 cells. Kind of assay: Trans-well cell migration assay, A549. The class given is cell-based, human. The conditions noted are these: IC50 concentration, 24 h, Boyden chamber, vs control. Here is the method:
Trans-well migration assay was performed using a modified Boyden chamber containing cell culture inserts (8 μm pore size, polyethylene terephthalate track-etched membrane, BD Falcon #353093). Briefly, cells were serum-starved for 3–4 h, trypsinized and suspended in a serum-free medium. In the upper chamber of cell culture insert, an equal number of cells with the IC50 dose of selected compounds or DMSO (control) were plated and in the lower chamber of well plate, 10% FBS-DMEM (for chemotaxis movement) was added. The cells were allowed to migrate for 24 h in a humidified 5% CO2 incubator at 37 °C and the migrated cells (that invaded through membrane pores) onto the lower side of Trans-well cell culture insert were fixed with methanol and staining was performed using 0.4% crystal violet in 25% methanol. The remaining cells present on the upper side of the chamber were wiped off with the help of cell scrapper/tissue wipes. Finally, the migrated cells present on the lower surface of the cell culture insert were imaged using a light microscope and counted in 3–5 random fields.

Sequence of human serum albumin (HSA) (P02768 25-609): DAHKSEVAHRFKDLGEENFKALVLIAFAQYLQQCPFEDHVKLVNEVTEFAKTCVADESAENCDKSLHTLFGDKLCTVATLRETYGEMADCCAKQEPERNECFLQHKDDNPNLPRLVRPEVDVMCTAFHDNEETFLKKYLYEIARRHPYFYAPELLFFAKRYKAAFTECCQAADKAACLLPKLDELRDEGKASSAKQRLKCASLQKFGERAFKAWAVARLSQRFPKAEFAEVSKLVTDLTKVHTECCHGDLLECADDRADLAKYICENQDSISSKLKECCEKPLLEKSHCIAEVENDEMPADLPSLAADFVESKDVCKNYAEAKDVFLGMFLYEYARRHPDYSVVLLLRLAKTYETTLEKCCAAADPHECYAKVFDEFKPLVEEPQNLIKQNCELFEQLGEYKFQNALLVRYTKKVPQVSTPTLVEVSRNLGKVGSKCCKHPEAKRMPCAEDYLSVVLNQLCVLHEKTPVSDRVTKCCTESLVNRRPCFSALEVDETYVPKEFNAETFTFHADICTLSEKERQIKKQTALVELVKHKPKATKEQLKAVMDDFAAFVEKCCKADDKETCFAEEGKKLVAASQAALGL

Consider `Cc1cc(C)c(C=NNC(=O)c2ccc(OCCN(C)C)cc2)c(C)c1` [H19], for which, in the assay with MCF-7 cells, the “apoptosis induced, share of MCF-7 cells” value is on record as 26.71%. In the assay on A549 cells [1], the “number of colonies, A549” value was “significantly decreased”. For the same molecule, in assay [2] (read-out: binding constant Ka for HSA (converted)), the Kd was 7.69 µM. In addition, in the assay with A549 cells [3], the “cell migration, A549” value is listed as “lesser number of cells were migrated”.

In the case of `CN(C)CCOc1ccc(C(=O)NN=Cc2ccc(Cl)cc2)cc1` [H4], in the assay with MCF-7 cells, the “apoptosis induced, share of MCF-7 cells” value came to 30.29%. In addition, in the assay on A549 cells [1], the “number of colonies, A549” value is on record as “significantly decreased”. The “binding constant Ka for HSA” value in assay [2] worked out at 443000 M⁻¹. In addition, the “cell migration, A549” value in the assay with A549 cells [3] is on record as “lesser number of cells were migrated”.
